± gives the standard deviation of the averaged measurements.

The text below walks through data of the supplement of paper PMC3621838.

The data set deals with HEK293 NF-kB-luciferase reporter cells. As to the kind of experiment: NF-kB luciferase reporter activity, robust Z-score vs plate median (robust Z-score (log luminescence)); higher = stronger NF-kB reporter activation. To be noted: TNF treatment time 8.5 h, transfection time 72 h. The method in brief: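 HEK293 cells stably carrying a 5X NF-κB firefly luciferase reporter were reverse transfected with Lipofectamine2000 in 384-well plates spotted with a miRNA mimic library at 1.6 pmol/well and grown for 72 hours. They were then given TNF at a final 40 ng/mL or vehicle for 8.5 hours before luminescence was read with BriteLite on an Envision reader. Each value is a robust Z-score of log luminescence, computed per plate from the plate median and median absolute deviation and averaged across duplicates.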
On the technique in general: Reporter assays use an easily measured gene product as a stand-in for the process of interest.

For the sequence GCUGCGCUUGGAUUUCGUCCCC, the “NF-kB luciferase reporter activity” value (TNF 0 ng/mL) is -0.0918 ± 0.13 and the “NF-kB luciferase reporter activity” value (TNF 40 ng/mL) stood at 0.328 ± 0.013.
The like results for AAUAAUACAUGGUUGAUCUUU were, in that order, -0.785 ± 0.09 and 0.0536 ± 0.043.
For AAAGUGCUGCGACAUUUGAGCGU the same measures were -0.434 ± 0.93 and -1.06 ± 0.19.
The like results for AAAGUGCAUCCUUUUAGAGGUUU were, in that order, -0.831 ± 1 and -0.425 ± 0.04.
In the case of CGGGUGGAUCACGAUGCAAUUU, the “NF-kB luciferase reporter activity” value runs as follows: (TNF 0 ng/mL) 0.731 ± 0.46; (TNF 40 ng/mL) -2.0207 ± 0.0002.
